How the values were obtained:
Type in all cases: cell-based, mouse
RAW 264.7 cells [1] = test: Gene expression analysis (qPCR) of M1 cytokines and Inos; conditions: for effect on nab-paclitaxel-dependent M1 cytokine expression: co-treatment with nab-paclitaxel
Procedure: Cell lines and cell culture treatments. All cells were maintained under 5% CO2 at 37° C. and cultured in DMEM (Gibco) supplemented with 10% FBS (Gibco), penicillin and streptomycin (Gibco), and 25 mmol/L HEPES (Gibco). Mouse RAW 264.7 cells were obtained from the American Type Culture Collection (2014, ATCC TIB-71). Mouse KPC cells were a kind gift from Dr. R. H. Vonderheide (2013) and generated as previously described (Lo et al., “Tumor-Promoting Desmoplasia Is Disrupted by Depleting FAP-Expressing Stromal Cells,” Cancer Res. 75:2800-10 (2015), which is hereby incorporated by reference in its entirety). Cell lines were not authenticated and were tested for mycoplasma contamination every 3 months by DAPI stain of cells grown for 1 week in the absence of antibiotics. KPC and RAW 264.7 were propagated for 2 to 3 passages (approximately 1 week) prior to use in all experiments and were kept in culture for no longer than 1 month. Recombinant mouse interferon gamma IFNγ was purchased from R&D Systems (CN 485 MI/CF), LPS (L2630), and paclitaxel (T7402) were purchased from Sigma-Aldrich, CLI-095 was purchased from Invivogen (TLRL-CLI95), BAPTA-AM was purchased from Life Technologies (B6769), and 5-(N-ethyl-N-isopropyl) amiloride (EIPA) was purchased from Invitrogen Molecular Probes (e-3111). Reagents were used at concentrations of 5 ng/mL (IFNγ), 20 ng/mL (LPS), […] (paclitaxel), 500 nmol/L (CLI-095), […] (BAPTA-AM), and […] (EIPA) unless indicated otherwise. Tetramethylrhodamine (TMR)-labeled dextran was purchased from Invitrogen (D1822). Nab-paclitaxel (Abraxane; Abraxis BioScience) pharmaceutical grade powder was purchased through the NYU Langone Medical Center pharmacy and used at a concentration of […] for in vitro experiments.
Gene expression analysis. For in vitro qPCR analysis, total RNAwas harvested 2 hours (IL1α, IL1β, IL6, TNFα, and iNOS) or 8 hours (IL12β) after cell culture treatments, using the QIAGEN RNA extraction Kit (QIAGEN). For in vivo gene expression analysis, the CD45 F4/80 double-positive population was sorted directly into TRIzol LS Reagent (Thermo-FisherScientific; CN 10296) from dissociated orthotopic tumors 48 hours after treatment, and total RNA was purified according to the manufacturer's protocol. Purified RNA ([…]) was reverse-transcribed using the QuantiTect Reverse Transcription Kit (QIAGEN), and 1 of 10 of cDNA mixture (in vitro experiments) or 1 of 3 of cDNA mixture (in vivo experiments) was used for qPCR reaction. Primers were obtained from Integrated DNA Technologies (IDT) with the following sequences (5′-3′): Il1α (Forward) […] (SEQ ID NO: 2), (Reverse) […] (SEQ ID NO: 3); Il1β (Forward) […] (SEQ ID NO: 4), (Reverse) […] (SEQ ID NO: 5); Il6 (Forward) […]-[…] (SEQ ID NO: 6), (Reverse) […] (SEQ ID NO: 7); Inos (Forward) […] (SEQ ID NO: 8), (Reverse) […] (SEQ ID NO: 9); Tnfα (Forward) […] (SEQ ID NO: 10), (Reverse) […] (SEQ ID NO: 11); Il12b (IIl12 p40) (Forward) […] (SEQ ID NO: 12), (Reverse) […]-[…] (SEQ ID NO: 13); Gapdh (Forward) […] (SEQ ID NO: 14), (Reverse) […] (SEQ ID NO: 15); Rps29 […] (SEQ ID NO: 16) (Forward), […]-GCGTACT (SEQ ID NO: 17) (Reverse).

RAW 264.7 cells [2] = test: Western blot analysis of M1 cytokine and iNOS protein expression
Procedure: (§1) Cell lines and cell culture treatments. All cells were maintained under 5% CO2 at 37° C. and cultured in DMEM (Gibco) supplemented with 10% FBS (Gibco), penicillin and streptomycin (Gibco), and 25 mmol/L HEPES (Gibco). Mouse RAW 264.7 cells were obtained from the American Type Culture Collection (2014, ATCC TIB-71). Mouse KPC cells were a kind gift from Dr. R. H. Vonderheide (2013) and generated as previously described (Lo et al., “Tumor-Promoting Desmoplasia Is Disrupted by Depleting FAP-Expressing Stromal Cells,” Cancer Res. 75:2800-10 (2015), which is hereby incorporated by reference in its entirety). Cell lines were not authenticated and were tested for mycoplasma contamination every 3 months by DAPI stain of cells grown for 1 week in the absence of antibiotics. KPC and RAW 264.7 were propagated for 2 to 3 passages (approximately 1 week) prior to use in all experiments and were kept in culture for no longer than 1 month. Recombinant mouse interferon gamma IFNγ was purchased from R&D Systems (CN 485 MI/CF), LPS (L2630), and paclitaxel (T7402) were purchased from Sigma-Aldrich, CLI-095 was purchased from Invivogen (TLRL-CLI95), BAPTA-AM was purchased from Life Technologies (B6769), and 5-(N-ethyl-N-isopropyl) amiloride (EIPA) was purchased from Invitrogen Molecular Probes (e-3111). […]

RAW 264.7 cells [3] = test: Macropinocytosis assay: OG-nab-paclitaxel internalization by macrophages; conditions: 30 minute pretreatment with inhibitor or blocking antibody
Procedure: as §1

[4] = nab-ptx in combination with IFNγ

CC(=O)OCOC(=O)CN(CC(=O)OCOC(C)=O)c1ccccc1OCCOc1ccccc1N(CC(=O)OCOC(C)=O)CC(=O)OCOC(C)=O [BAPTA-AM]
effect on nab-paclitaxel-dependent M1 cytokine expression (RAW 264.7 cells [1]): inhibited

CCOC(=O)C1=CCCC[C@H]1S(=O)(=O)Nc1ccc(F)cc1Cl [CLI-095]
effect on nab-paclitaxel and LPS-dependent iNOS protein expression (RAW 264.7 cells [2]; with IFNγ): abrogated
effect on LPS-dependent Il1α, Il1β, Il6, Il12b, and Tnfα gene expression (RAW 264.7 cells [1]; TLR4 inhibitor with LPS): abrogated
effect on nab-paclitaxel-dependent Il1α, Il1β, Il6, Il12b, and Tnfα gene expression (RAW 264.7 cells [1]; TLR4 inhibitor with nab-ptx): abrogated

CCN(c1nc(N)c(C(=O)N=C(N)N)nc1Cl)C(C)C [EIPA, 5-(N-ethyl-N-isopropyl) amiloride]
effect on nab-paclitaxel-driven iNOS protein expression (RAW 264.7 cells [2]; [4]): partially inhibited
effect on OG-nab-paclitaxel internalization (RAW 264.7 cells [3]): reduced
effect on nab-paclitaxel-dependent M1 cytokine expression (RAW 264.7 cells [1]): inhibited
effect on nab-paclitaxel-driven iNOS gene expression (RAW 264.7 cells [1]; [4]): partially inhibited
